For one series, the system named is ERK1/2. Briefly: TNFα stimulated ERK1/2 phosphorylation in proximal tubular cells, Western-blot. It is filed as cell-based, mouse. The method, then:
The activation of NF-κB and mitogen activated protein kinases including p38, JNK (Jun N-terminal kinase), and ERK (extracellular signal regulated kinase) pathways play an essential role in proinflammatory actions of TNFα. Thus, it was examined whether PPS affected the phosphorylation of IκB, ERK, p38, and JNK by TNFα. Proximal tubular cells were allowed to grow to 70% confluency in […] petri-dish. Cell lysates were collected before or 15, 30, 60, and 120 minutes after TNFα treatment (10 ng/ml). Cells in some dishes were pre-incubated with PPS (400 μg/ml) for ½ hour before exposure to TNFα. The levels of phosphorylated IκB, ERK, p38, and JNK were determined by Western-blots. Briefly, equal amounts of protein samples (10-20 μg/lane) were loaded onto SDS-PAGE gels. After electrophoresis, proteins were transferred to nitrocellulose membranes and blotted with antibody against phosphorylated IκB, ERK, p38, or JNK (Cell signaling, Boston, Mass.). After the first analysis, the membranes were stripped to re-probe with antibody against total IκB, ERK, p38 or JNK, and ERK and finally with antibody against β-actin (Cell signaling, Boston, Mass.).

Series [1] concerns MCP-1, RANTES, CXCL1, MIP-2, ICAM-1, and iNOS mRNA. Description: TNFα induced pro-inflammatory gene expression in proximal tubular cell line, real-time PCR. It is filed as cell-based, mouse. Particulars: PPS 200 μg/ml for 1 hour before TNFα 10 ng/ml, RNA 4 hours later. On the procedure:
A proximal tubular cell line obtained from mice transgenic for SV40 T antigen was grown in DMEM containing 10% FBS. For the measurement of TNFα-stimulated gene expression, 1×10^5 proximal tubular cells were transferred to each well of a 6-well-plate. After placing the cells in 0.1% FBS medium for 24 hours, 10 ng/ml of TNFα was added to test wells. Total RNA was isolated from all wells 4 hours later. MCP-1, RANTES, CXCL1, MIP-2, ICAM-1, and iNOS mRNA levels were determined by real-time PCR as described above and corrected by β-actin mRNA levels. TNFα stimulated MCP-1 and RANTES production and release into the medium was measured in TNFα (10 ng/ml) treated and control cells at 24 hours. The amount of MCP-1 or RANTES in the medium was measured by ELISA (Invitrogen Corporation (Carlsband, Calif.).
To determine the effect of PPS on TNFα induced upregulation of proinflammatory genes, proximal tubular cells were pre-treated with PPS (200 μg/ml) for 1 hour before the addition of TNFα (10 ng/ml). MCP-1, RANTES, CXCL1, MIP-2, ICAM-1, and iNOS mRNA levels were determined 4 hours later by real-time PCR. MCP-1 and RANTES production was also measured.

For a further series, the system named is MMP-2. Briefly: Zymography of aortic extracts. It is filed as in vivo, rabbit. Particulars: PPS-treated WHHL rabbits, 75 days HC-diet. On the procedure: (§1) MMP activity in aortic extracts and conditioned media from monocytes was assessed, as previously described (Jacot T A, et al., Lab Invest. 1996; 75:791-79). Briefly, aortic segments were homogenized and extracted in RIPA buffer (25 mM Tris, pH 7.4, 150 mM KCl, 5 mM EDTA, 1% Nonidet P-40, 0.5% sodium deoxycholate, and 0.1% SDS). Insoluble material was precipitated by centrifugation, and soluble extracts were collected and stored at −20° C. for further analysis. For in vitro experiments, cell supernatants were centrifuged to remove cellular debris, and diluted appropriately to normalize for cell number. Aortic extracts and conditioned media were then mixed with sample buffer (1% SDS, 0.08 M Tris pH 6.8, 4% glycerol, and 0.006% bromophenol blue), and loaded onto a 10% gelatin polyacrylamide gel, and processed as described (Jacot T A, et al., Lab Invest. 1996; 75:791-79). For reverse zymography, samples were loaded onto a 15% gelatin polyacrylamide gel containing 0.5% porcine gelatin and 6 μg recombinant gelatinase A, and processed as described (Elliot S J, et al., J Am Soc Nephrol. 1999; 10: 62-68).

A short description of series [2]: Plasma lipid and lipoprotein analyses in WHHL rabbits. It is filed as in vivo, rabbit. Particulars: for Free cholesterol / Phospholipids / Total cholesterol / Triglycerides: mean ± SEM, 5 animals. The method, then: Blood was drawn from rabbits after a 12-hour fast into tubes containing EDTA at the beginning of the study, every two weeks during treatment with the atherogenic diet, and at the end of the study. The total cholesterol and triglyceride concentrations (Sigma) as well as unesterified cholesterol and phospholipids (Wako Chemicals, Richmond, Va.) were determined on plasma samples using enzymatic methods on a Hitachi 911 Autoanalyzer (Boehringer Mannheim). Post-heparin hepatic lipase activity was determined as described (Iverius P H, Brunzell J D. Am J Physiol 1985; 249: E107-E114).

The subject of a further series is monocytic cells. Briefly: Cell viability by trypan blue staining. It is filed as cell-based, human.
The next series relates to MMP-2 and MMP-9. Briefly: Zymography of supernatants of human peripheral blood-derived macrophages. To be noted: TNF-α stimulated human peripheral blood-derived macrophages, 100 μg/ml PPS. It is filed as cell-based. The method, then: Human peripheral blood monocytes were isolated as previously described (Valone F H, Epstein L B. J Immunol. 1988; 141: 3945-3950), and maintained in medium 199 supplemented with 2% human serum for in vitro differentiation into macrophages (Camussi G, et al., J Exp Med. 1987; 166: 1390-1404).
as §1

The next series relates to MMP-9. Briefly: Zymography of U937 cell supernatants, MMP-9. To be noted: U937 cells stimulated with 10 ng/ml TNF-α, 100 μg/ml PPS; P<0.01. The format is cell-based, human. On the procedure:
Human pro-monocytic U937 cells were obtained from American Type Culture Collection (Manassas, Va.) and grown in RPMI medium supplemented with 10% FBS. U937 cells were plated in six-well plates at a density of 5×10^6 cells/ml. The cells were then stimulated with 10 ng/ml TNF-α, in the presence or absence of either increasing concentrations of PPS (10-100 μg/ml) or heparin (100 μg/ml), and incubated at 37° C. for 3 hours. Following stimulation, cells were placed in 0.1% BSA-serum-free medium for 16-18 hours. The media was then collected, centrifuged, and supernatants were stored at −80° C. for the assessment of MMP activity. The cell number was determined by direct cell counting.
MMP activity in aortic extracts and conditioned media from monocytes was assessed, as previously described (Jacot T A, et al., Lab Invest. 1996; 75:791-79). Briefly, aortic segments were homogenized and extracted in RIPA buffer (25 mM Tris, pH 7.4, 150 mM KCl, 5 mM EDTA, 1% Nonidet P-40, 0.5% sodium deoxycholate, and 0.1% SDS). Insoluble material was precipitated by centrifugation, and soluble extracts were collected and stored at −20° C. for further analysis. For in vitro experiments, cell supernatants were centrifuged to remove cellular debris, and diluted appropriately to normalize for cell number. […]

The test system of the next series is TIMP-1, -2, and -3. Briefly: Reverse zymography of aortic extracts. The format is in vivo, rabbit. Particulars: PPS-treated WHHL rabbits, 75 days HC-diet. On the procedure: as §1
Setting [3] is: 45 days HC-diet, PPS group before start of PPS.
The mark [4] stands for this setting: 75 days HC-diet, PPS in drinking water for the last 30 days.
The mark [5] stands for this setting: Baseline (3 months of age), PPS group before treatment.

pentosan polysulfate [PPS]: the “TNFα-stimulated ERK1/2 phosphorylation” value in the series with ERK1/2 is “suppressed”. Besides, in series [1], the “TNFα stimulation of MCP-1, RANTES, CXCL-1, MIP-2, ICAM-1 and iNOS mRNA expression” value is reported as “largely prevented”. In the series on MMP-2, the “MMP-2 activity in aortic extracts” value is reported as “significantly increased”. In addition, in series [2] (setting [3]), the Free cholesterol amounted to 1038.52 ± 128.80 mg/dL, the Phospholipids was found to be 1241.09 ± 142.75 mg/dL, the Total cholesterol stood at 2133.28 ± 85.04 mg/dL and the Triglycerides came to 331.28 ± 86.61 mg/dL. In series [2] (setting [4]), this substance returned a Free cholesterol of 785.46 ± 93.22 mg/dL, a Phospholipids of 878.17 ± 107.98 mg/dL, a Total cholesterol of 1565.40 ± 212.07 mg/dL and a Triglycerides of 184.10 ± 30.19 mg/dL. Besides, in series [2] (setting [5]), the Free cholesterol was determined as 282.92 ± 13.03 mg/dL, the Phospholipids was 574.59 ± 26.44 mg/dL, the Total cholesterol turned out to be 901.18 ± 50.30 mg/dL and the Triglycerides was determined as 762.91 ± 72.13 mg/dL. Moreover, in series [2] (PPS-treated WHHL rabbits, a trend towards reduction was observed), the “plasma lipid levels after 75 days of HC-diet versus 45 days” value is “not significantly different”. Further, the “effect on cell viability” value in the series with monocytic cells is recorded as “no effect”. For the same substance, the “effect on MMP production” value with MMP-2 and MMP-9 is recorded as “inhibitory effect”. For the same substance, in the series with MMP-9, the “MMP-9 activity, reduction by PPS treatment” value is listed as 51.70%±10.77%. Further, the “activity of TIMP-1, -2, and -3 in aortic extracts” value with TIMP-1, -2, and -3 is reported as “marked increase”.
